In ChEMBL document CHEMBL5500373, “Lead optimization based design, synthesis, and pharmacological evaluation of quinazoline derivatives as multi-targeting agents for Alzheimer's disease treatment” (Eur J Med Chem, 2024):
The source made the active and inactive calls. The rule behind the calls is not given here.

What was measured:
[1] = Cytotoxicity against human SH-SY5Y cells by MTT assay; type: toxicity, cell-based
Beta-secretase 1 [2] = target: T1, Beta-secretase 1 (Homo sapiens, UniProt P56817); assay: Inhibition of BACE-1 in human SH-SY5Y cells transfected with human APP695 measured after 24 hrs by ELISA; type: cell-based
Beta-secretase 1 [3] = target: T1, Beta-secretase 1; assay: Inhibition of C-terminal 10-His tagged recombinant human BACE-1 using Mca-Ser-Glu-Val-Asn-Leu-Asp-Ala-Glu-Phe-Arg-Lys(Dnp)-Arg-Arg-NH2 as substrate pretreated for 10 mins followed by substrate addition and measured every 5 mins for 120 mins
[4] = target: Cholinesterase (Equus caballus) (UniProt P81908); assay: Inhibition of horse serum BChE at 100 uM preincubated for 10 mins followed by substrate addition and measured after 15 mins by Ellman's method relative to control; details: time 25.0 min
Beta-secretase 1 [5] = target: T1, Beta-secretase 1; assay: Inhibition of human BACE-1 measured after 2 hrs by FRET assay
Cholinesterase [6] = target: T2, Cholinesterase (Homo sapiens, UniProt P06276); assay: Inhibition of human serum BChE using butyrylthiocholine iodide as substrate preincubated for 30 mins followed by substrate addition and measured after 30 mins by DTNB based Ellman's method
Acetylcholinesterase [7] = target: T3, Acetylcholinesterase (Homo sapiens, UniProt P22303); assay: Inhibition of human erythrocyte AChE using acetylthiocholine iodide as substrate preincubated for 30 mins followed by substrate addition and measured after 30 mins by DTNB based Ellman's method
in vitro = details: PAMPA
PC-12 = assay: Neuroprotective activity against amyloid beta (1 to 42 residues) induced cell damage in rat PC12 cells at 100 uM by MTT assay relative to control; type: functional
[8] = target: Amyloid-beta precursor protein (Homo sapiens) (UniProt P05067); assay: Inhibition of self induced amyloid beta (1 to 42 residues) (unknown origin) aggregation at 10 uM by thioflavin T based fluorescence analysis relative to control
Beta-secretase 1 [9] = target: T1, Beta-secretase 1; assay: Inhibition of human BACE-1 by FRET assay
Acetylcholinesterase [10] = target: T3, Acetylcholinesterase; assay: Inhibition of AChE (unknown origin)
Acetylcholinesterase [11] = target: T3, Acetylcholinesterase; assay: Inhibition of AChE (unknown origin) at 10 uM relative to control
Cholinesterase [12] = target: T2, Cholinesterase; assay: Inhibition of BChE (unknown origin) at 10 uM relative to control
[13] = Antioxidant activity assessed as DPPH radical scavenging activity incubated for 30 mins in dark by UV/visible spectrophotometric analysis; type: functional
[14] = Drug concentration in male Wistar rat brain homogenate at 20 mg/kg, po measured after 4 days; type: ADME, organism-based; details: time 4 day, read-out: Ct
Cholinesterase [15] = target: T2, Cholinesterase; assay: Inhibition of human BChE
Acetylcholinesterase [16] = target: T3, Acetylcholinesterase; assay: Inhibition of human AChE
Beta-secretase 1 [17] = target: T1, Beta-secretase 1; assay: Inhibition of human BACE-1
[18] = Drug concentration in male Wistar rat brain homogenate at 10 mg/kg, po measured after 4 days; type: ADME, organism-based; details: time 4 day, read-out: Ct
[19] = target: Amyloid-beta precursor protein (Homo sapiens) (UniProt P05067); assay: Inhibition of amyloid beta (1 to 42 residues) (unknown origin) aggregation assessed as reduction in massive oligomers measured after 3 days by AFM analysis; details: time 3.0 day
[20] = target: Amyloid-beta precursor protein (Homo sapiens) (UniProt P05067); assay: Inhibition of amyloid beta (1 to 42 residues) (unknown origin) aggregation assessed as reduction in fibrils measured after 3 days by AFM analysis; details: time 3.0 day

Sequence of Amyloid-beta precursor protein (Homo sapiens) (P05067 whole entry, the tested form may be a part): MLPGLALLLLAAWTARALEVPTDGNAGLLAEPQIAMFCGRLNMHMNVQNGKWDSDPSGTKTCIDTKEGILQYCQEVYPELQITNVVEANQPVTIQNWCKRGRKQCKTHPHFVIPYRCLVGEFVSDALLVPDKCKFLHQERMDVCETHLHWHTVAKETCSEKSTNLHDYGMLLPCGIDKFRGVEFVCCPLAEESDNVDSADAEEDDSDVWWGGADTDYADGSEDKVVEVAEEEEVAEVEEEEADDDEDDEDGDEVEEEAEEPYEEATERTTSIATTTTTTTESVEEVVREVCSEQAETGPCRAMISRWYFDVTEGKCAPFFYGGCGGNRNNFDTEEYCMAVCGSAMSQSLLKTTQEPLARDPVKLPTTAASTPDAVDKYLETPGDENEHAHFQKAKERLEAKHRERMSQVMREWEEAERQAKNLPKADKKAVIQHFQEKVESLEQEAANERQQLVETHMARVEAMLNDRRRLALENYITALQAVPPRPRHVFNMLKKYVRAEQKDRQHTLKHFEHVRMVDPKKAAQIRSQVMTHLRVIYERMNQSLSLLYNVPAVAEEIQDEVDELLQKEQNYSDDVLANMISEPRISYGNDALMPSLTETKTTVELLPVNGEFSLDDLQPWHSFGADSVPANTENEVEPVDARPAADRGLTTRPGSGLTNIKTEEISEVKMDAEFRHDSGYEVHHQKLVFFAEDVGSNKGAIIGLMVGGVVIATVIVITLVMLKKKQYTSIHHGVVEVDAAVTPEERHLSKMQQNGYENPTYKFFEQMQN
T1 sequence (P56817 whole entry): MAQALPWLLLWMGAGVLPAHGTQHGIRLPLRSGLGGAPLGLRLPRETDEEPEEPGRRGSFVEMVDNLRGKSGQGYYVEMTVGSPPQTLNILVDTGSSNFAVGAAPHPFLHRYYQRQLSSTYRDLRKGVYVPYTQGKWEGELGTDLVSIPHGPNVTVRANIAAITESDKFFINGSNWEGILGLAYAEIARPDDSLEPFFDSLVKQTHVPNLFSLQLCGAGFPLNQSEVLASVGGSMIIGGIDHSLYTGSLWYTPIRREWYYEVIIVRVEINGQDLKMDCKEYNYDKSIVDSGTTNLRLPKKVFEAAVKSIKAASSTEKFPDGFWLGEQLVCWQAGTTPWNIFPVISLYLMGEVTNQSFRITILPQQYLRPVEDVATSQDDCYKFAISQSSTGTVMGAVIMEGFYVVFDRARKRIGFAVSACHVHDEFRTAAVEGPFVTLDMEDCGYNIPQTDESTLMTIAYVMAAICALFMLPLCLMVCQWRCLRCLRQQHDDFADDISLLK
T3 sequence (P22303 whole entry): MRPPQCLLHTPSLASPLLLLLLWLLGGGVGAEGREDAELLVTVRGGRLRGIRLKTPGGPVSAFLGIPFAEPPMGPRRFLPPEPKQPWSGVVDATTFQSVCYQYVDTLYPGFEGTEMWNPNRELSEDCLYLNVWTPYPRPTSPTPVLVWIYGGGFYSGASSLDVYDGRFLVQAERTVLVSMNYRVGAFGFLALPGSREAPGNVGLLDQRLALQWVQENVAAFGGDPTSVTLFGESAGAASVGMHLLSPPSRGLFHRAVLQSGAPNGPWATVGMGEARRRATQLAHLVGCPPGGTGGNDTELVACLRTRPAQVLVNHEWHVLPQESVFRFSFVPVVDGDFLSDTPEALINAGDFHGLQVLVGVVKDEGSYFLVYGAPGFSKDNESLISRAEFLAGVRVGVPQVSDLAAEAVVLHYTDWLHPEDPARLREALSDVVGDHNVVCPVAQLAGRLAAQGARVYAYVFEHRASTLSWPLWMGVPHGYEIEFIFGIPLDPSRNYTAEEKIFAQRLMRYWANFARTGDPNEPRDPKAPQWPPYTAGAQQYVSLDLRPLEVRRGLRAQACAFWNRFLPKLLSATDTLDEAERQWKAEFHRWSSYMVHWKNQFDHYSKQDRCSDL
T2 sequence (P06276 whole entry): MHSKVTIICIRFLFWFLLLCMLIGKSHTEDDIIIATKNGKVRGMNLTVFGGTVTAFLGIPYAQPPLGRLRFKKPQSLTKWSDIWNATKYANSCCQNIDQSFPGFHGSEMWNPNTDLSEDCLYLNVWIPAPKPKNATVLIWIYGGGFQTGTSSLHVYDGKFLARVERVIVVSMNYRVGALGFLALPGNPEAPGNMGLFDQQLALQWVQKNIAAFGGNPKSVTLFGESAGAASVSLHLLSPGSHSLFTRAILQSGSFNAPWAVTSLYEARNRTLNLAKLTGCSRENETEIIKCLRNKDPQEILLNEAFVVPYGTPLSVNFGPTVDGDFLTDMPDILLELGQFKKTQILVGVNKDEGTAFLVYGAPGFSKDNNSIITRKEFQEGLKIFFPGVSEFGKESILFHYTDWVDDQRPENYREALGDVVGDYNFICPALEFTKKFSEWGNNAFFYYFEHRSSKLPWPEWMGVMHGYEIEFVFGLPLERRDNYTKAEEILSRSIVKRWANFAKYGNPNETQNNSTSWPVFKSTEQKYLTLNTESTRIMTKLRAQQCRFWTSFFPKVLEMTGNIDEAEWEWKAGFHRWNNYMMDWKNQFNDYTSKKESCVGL
Sequence of Cholinesterase (Equus caballus) (P81908 whole entry): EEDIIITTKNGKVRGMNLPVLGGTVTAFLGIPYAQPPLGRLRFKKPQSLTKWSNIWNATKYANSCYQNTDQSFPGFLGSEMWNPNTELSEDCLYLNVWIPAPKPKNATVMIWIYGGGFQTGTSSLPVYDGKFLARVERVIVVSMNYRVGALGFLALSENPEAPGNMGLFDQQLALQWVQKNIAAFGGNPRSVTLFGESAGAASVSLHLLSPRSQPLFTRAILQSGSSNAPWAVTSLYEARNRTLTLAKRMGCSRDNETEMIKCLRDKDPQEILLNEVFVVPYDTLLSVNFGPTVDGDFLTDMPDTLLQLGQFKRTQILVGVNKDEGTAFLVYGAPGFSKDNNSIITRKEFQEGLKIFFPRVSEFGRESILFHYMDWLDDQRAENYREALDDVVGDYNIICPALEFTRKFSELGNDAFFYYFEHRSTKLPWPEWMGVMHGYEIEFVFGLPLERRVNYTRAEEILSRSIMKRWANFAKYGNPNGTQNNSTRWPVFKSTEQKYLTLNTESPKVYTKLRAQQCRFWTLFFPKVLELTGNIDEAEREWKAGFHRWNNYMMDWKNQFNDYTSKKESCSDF

SMILES | IC50 (Beta-secretase 1 [5]) [nM] | IC50 (Cholinesterase [6]) [nM] | IC50 (Acetylcholinesterase [7]) [nM] | other results
CC1c2cc(Oc3ccccc3)ccc2N=C(N)N1CCCC(=O)N(Cc1ccnn1C)C1CCCCC1 (centres undefined) |  |  |  | IC50 [1]: 11800 nM; IC50 (Beta-secretase 1 [2]): 140 nM; IC50 (Beta-secretase 1 [3]): 380 nM
Cc1ccccc1-n1c(SCC(=O)N/N=C/c2ccc(Br)cc2)nc2ccccc2c1=O |  |  |  | inhibition [4]: 6.8%
COc1cc2ncnc(N3CCN(C(C)=O)CC3)c2cc1OC | 3660 | > 10000 | 1190 | 
COc1cc2ncnc(N3CCN(c4ccc([N+](=O)[O-])cc4)CC3)c2cc1OC | 729 | > 10000 | 481 | Papp at 18 h, 25 ug/ml (in vitro): 4.81 ×10⁻⁶ cm/s
COc1cc2c(Nc3ccc(C(=O)/C=C/c4nc(C)c(C)nc4C)cc3)ncnc2c(OC)c1OC |  |  |  | Activity (PC-12): 77%; inhibition [8]: 26.7%
COc1cc2ncnc(N3CCN(Cc4ccc(Cl)cc4)CC3)c2cc1OC | 1650 | > 10000 | 921 | 
FC(F)(F)c1ccc(-c2nnc(NC3CCN(Cc4ccccc4)CC3)o2)cc1 |  |  |  | IC50 (Beta-secretase 1 [9]): 146 nM
COc1cc2ncnc(N3CCN(c4ccccc4[N+](=O)[O-])CC3)c2cc1OC | 1820 | > 10000 | 914 | 
COc1cc2ncnc(N3CCN(Cc4ccc(F)cc4)CC3)c2cc1OC | 2920 | > 10000 | 932 | 
COc1cc2ncnc(N3CCN(c4ccc(C)cc4)CC3)c2cc1OC | 1880 | > 10000 | 1170 | 
COc1cc2ncnc(N3CCN(Cc4ccc(C)cc4)CC3)c2cc1OC | 1430 | > 10000 | 1020 | 
COc1cc2ncnc(N3CCN(c4ccc(F)cc4)CC3)c2cc1OC | 1470 | > 10000 | 1040 | 
O=C(CCN1CCCCC1)Nc1ccc2nc(-c3cc4ccccc4[nH]3)[nH]c(=O)c2c1 |  |  |  | IC50 (Acetylcholinesterase [10]): 21 nM
C#CCN(C)c1nc(NC2CCCCC2)c2ccc(Cl)cc2n1 |  |  |  | inhibition (Acetylcholinesterase [11]): 3%; inhibition (Cholinesterase [12]): 3%
COc1cc2ncnc(N3CCN(c4ccccn4)CC3)c2cc1OC | 1560 | > 10000 | 1150 | 
COc1cc2ncnc(N3CCN(c4ccccc4)CC3)c2cc1OC | 1310 | > 10000 | 1010 | 
Cn1c(N/N=C/c2cccc(Cl)c2Cl)nc2ccccc2c1=O |  |  |  | IC50 [13]: > 100000 nM
c1ccc(CN2CCN(c3nc(-c4ccccc4)nc4ccccc34)CC2)cc1 |  |  |  | concentration at 96 h [14]: 54 ng/mL; IC50 (Cholinesterase [15]): > 10000 nM; IC50 (Acetylcholinesterase [16]): 191 nM; IC50 (Beta-secretase 1 [17]): 254000 nM; concentration at 96 h [18]: 15 ng/mL
COc1cc2ncnc(N3CCN(c4ccc(Br)cc4)CC3)c2cc1OC | 1710 | > 10000 | 973 | 
COc1cc2ncnc(N3CCN(C)CC3)c2cc1OC | 3280 | > 10000 | 1270 | 
COc1cc(/C=C/C(=O)CC(=O)/C=C/c2ccc(O)c(OC)c2)ccc1O |  |  |  | inhibition [19]: Active; inhibition [20]: Active
COc1cc2ncnc(N3CCN(C(c4ccccc4)c4ccccc4)CC3)c2cc1OC | 662 | > 10000 | 436 | Papp at 18 h, 25 ug/ml (in vitro): 6.28 ×10⁻⁶ cm/s
